Results reported in patent publication US12697277B2, “Materials and methods for mitigating the presence of nitrosamines in packaging using an active agent” (CSP TECHNOLOGIES, INC., priority 2024, dated 2026).
Each block holds one compound with its values, some of them ahead of it.

Key:
[1] = Effect of active agent (sachet or film) on nitrite in GC vial headspace, cyclohexene derivative method; format: physicochemical; details: 50 mg active in sachet hanging in GC vial headspace over sulfuric acid + potassium nitrite; 24 hours at 60° C.
Experimental: A 1 inch×0.5 inch tea bag sachet containing 50 mg±2 mg of a potential active agent, or a 1 cm^2 film was placed hanging in a GC vial headspace. […] 1 mL of 1M sulfuric acid solution and 1 mL of potassium nitrite solution (1 g/10 mL) was placed into the GC vial. The film or sachet was placed suspended inside the GC vial, and sealed, and aged for 24 hours at 60° C. GC-MS was conducted on the headspace using the derivative method. The methodology is based on a chemically derivative method that reacts all available NOx or nitrite directly into a measurable compound (cyclohexene) using acidified sodium cyclamate. The reaction is shown below:
It will be understood that both the nitrite anion (NO2^−) and […] (HNO2), with the relative amounts being determined by solution pH, will be quantified by this method, and gaseous NOx can also be quantified, due to its equilibrium with aqueous phase species. For simplicity, results of this test may be described as measuring the amount of nitrite.

[2] = NO2 adsorption by raw active and film, fixed bed reactor; format: physicochemical; details: raw active, 250 mg, 22° C.; for NO2 Adsorbed Amount: 505 ppm of NO2
Experimental: (§1) NO and NO2 adsorption experiments were conducted within a fixed bed reactor at 22° C. In each experimental run, 250 mg of the sample was meticulously deposited onto a fused silica frit positioned within a vertical quartz reactor, which boasted an internal diameter of 6 mm. Prior to each experiment, the system underwent a thorough purge using nitrogen (N) to eliminate any residual gases and ensure a clean starting point. Following the purge, calibration procedures were meticulously carried out to guarantee the accuracy of the concentration measurements. This involved precisely calibrating the ROSEMOUNT NGA 2000 detector to establish a reliable baseline for the subsequent experiments. […] Throughout the experiments, the concentrations of outlet gases, namely NO and NO2, were continuously monitored. This real-time analysis was facilitated by the highly sensitive ROSEMOUNT NGA 2000 detector (St. Louis, MO, USA). To account for any background signals or potential interferences, a blank experiment was conducted using an empty reactor. The obtained results from this blank experiment were subtracted from the measurements of the sample, ensuring that the recorded concentrations accurately reflected the adsorption behavior of NO2 by the sample. This meticulous approach enhances the reliability and precision of the experimental findings.

[3] = Raw active and film studies with propranolol: Nitroso-propranolol (NPO) by LC-MS; format: physicochemical; details: raw active 5 g in pouch in 250 ml bottle with 1 g propranolol; 50° C./75% RH, 4 weeks
Experimental: Raw active or film with active were tested in 250 ml bottles with 1 g of propranolol (beads), to measure formation of Nitroso-propranolol (NPO). When present, the film (2 pieces of A2×2 inches) was wrapped inside bottle(s). Raw active (5 g) was placed in a pouch inside bottle(s).
Humidity was provided by vials containing a salt solution: ASAPprime™ vials (FreeThink Technologies, Branford CT, USA). A screw cap was used, with no induction seal.
NPO was directly measured by LC-MS (liquid chromatography-mass spectroscopy). The detection limit is approximately 1% of the results reported.

[4] = Film and sachet comparison in monolayer bottles: nitrite; format: physicochemical; details: raw active in sachet in monolayer bottle; 60° C., 40% RH, 6 days
Experimental: For raw active samples, the appropriate mass was weighed as shown in Table 20 and was placed in a sachet which was closed. Films were cut to 120 mm×65 mm. Film thickness was from about 0.3 mm to about 1.2 mm.
A 20 mL scintillation vial was placed in each bottle. 3.5 mL of potassium nitrite and 3.5 mL of sulfuric acid were added to the scintillation vial. GC-MS was conducted on the headspace using the cyclohexene derivative method for nitrite. Samples were aged at 60° C. and 40% RH for 6 days.

[5] = NO adsorption by raw active and film, fixed bed reactor; format: physicochemical; details: raw active, 250 mg, 22° C.
Experimental: as §1

[6] = FDA acceptable intake limit; cited from earlier work
[7] = Effect of raw active on nitrite, headspace GC (modified FDA protocol); format: physicochemical; details: raw active 50 mg in GC vial with sulfuric acid + potassium nitrite, 24 hours at 60° C., estimated ppm of nitrous acid in headspace
Experimental: The active sachet was placed inside the GC vial and sealed and aged for 24 hours at 60° C. Controls only contained the liquid. GC was conducted on the headspace using a modified version of the FDA protocol for GC-MS/MS to detect nitrite. […] Food & Drug Administration (FDA), Apr. 29, 2019, published online.

[8] = Maximum daily dose (MDD) and acceptable intake (AI) for each nitrosamine formed by each drug
[9] = acceptable intake of the nitrosamine per day; cited from earlier work

Compound: O=C([O-])[O-].[Mg+2] [Magnesium Carbonate]
Nitrite (% decrease) [1]: 33.9%
NO2 Adsorbed Amount [2]: 8.03 mg/g

Compound: [O]=[Fe][O][Fe]=[O] [Ferric Oxide]
Nitrite (% decrease) [1]: 14.3%

Compound: O=C(O)/C=C/c1ccc(O)c(O)c1 [Caffeic Acid]
Nitrite (% decrease) [1]: 31.6%

Compound: [Cl-].[Cl-].[Mg+2] [Magnesium Chloride]
Nitrite (% decrease) [1]: −15.7%

Compound: Nc1ccc(C(=O)O)cc1 [4-aminobenzonic acid]
NPO (% Decrease) [3]: 7%

Compound: O=C([O-])O.[Na+] [Sodium Bicarbonate]
Nitrite (% decrease) [4]: 72.8%
NO Adsorbed Amount [5]: 0.14 mg/g
Nitrite (% decrease) [1]: 57.7%
NO2 Adsorbed Amount [2]: 2.24 mg/g

Compound: CC(C)N(N=O)C(C)C [NDIPA, N-nitrosodi-2-propylamine]
AI Limit [6]: 26.5 ng/day

NO Adsorbed Amount [5]: 0.14 mg/g
NO2 Adsorbed Amount [2]: 2.50 mg/g
Compound: O=C1O[C@H]([C@@H](O)CO)C(O)=C1O [Ascorbic Acid, L-ascorbic acid]
Nitrite (% decrease) [4]: −111.1%
NPO (% Decrease) [3]: 9%
Nitrite (% decrease) [1]: 23.7%
Nitrite (ppm) [7]: 0.08 ppm
Nitrite (ppm) ([7]; listed as Ascorbic acid): most effective raw active at decreasing the level of nitrite

NO2 Adsorbed Amount [2]: 3.27 mg/g
Compound: COc1cc(/C=C/C(=O)O)ccc1O [Ferulic Acid]
Nitrite (% decrease) [1]: 61.7%

Compound: Cl [Hydrochloric Acid]
Nitrite (% decrease) [1]: 14.4%

Compound: O=C([O-])[O-].[Ca+2] [Calcium Carbonate]
NO Adsorbed Amount [5]: 0.15 mg/g
Nitrite (% decrease) [1]: 46.9%
NO2 Adsorbed Amount [2]: 7.75 mg/g
NO2 Adsorbed Amount (mg/g) ([2]; 505 ppm of NO2, listed as calcium carbonate): most effective NO2 adsorber from amongst the raw actives tested

Compound: CC1=C(/C=C/C(C)=C/C=C/C(C)=C/C=C/C=C(C)/C=C/C=C(C)/C=C/C2=C(C)C(=O)[C@@H](O)CC2(C)C)C(C)(C)C[C@H](O)C1=O [Astaxanthin]
Nitrite (% decrease) [1]: 35.0%

Compound: COC1=C(OC)C(=O)C(C/C=C(\C)CC/C=C(\C)CC/C=C(\C)CC/C=C(\C)CC/C=C(\C)CC/C=C(\C)CC/C=C(\C)CC/C=C(\C)CC/C=C(\C)CCC=C(C)C)=C(C)C1=O [Coenzyme Q10]
Nitrite (% decrease) [1]: −7.8%

Compound: O=NN1CCC(c2ccccc2)CC1 [1-nitroso-4-phenylpiperdine]
AI (ppm) ([8]; 4-Phenylpiperdine (CPCA Calculated), MDD (ketophrofen) 200 mg): 2 ppm
AI (ppm) ([8]; 4-Phenylpiperdine (CPCA Calculated), MDD (meperide) 600 mg): 0.67 ppm
AI (ppm) ([8]; 4-Phenylpiperdine (CPCA Calculated), MDD (pethidine) 400 mg): 1 ppm
average AI ([8]; average of the three MDD-based values): 1.2 ppm

Compound: CCN(CC)N=O [NDEA, N-nitrosodiethylamine]
AI Limit [6]: 26.5 ng/day

Compound: Sodium Alginate
Nitrite (% decrease) [1]: 27.7%

Compound: CCN(N=O)C(C)C [NIPEA]
AI Limit [6]: 26.5 ng/day

Compound: CN(CCCC(=O)O)N=O [NMBA]
AI Limit [6]: 96 ng/day

Compound: CN(CC(O)c1cccc(O)c1)N=O (stereo not drawn) [1-nitroso-phenylephrine]
AI (ppm) ([8]; Phenylephrine, MDD 60 mg): 1.67 ppm
AI /day [9]: 100 ng

Compound: CN(C)N=O [NDMA, N-nitrosodimethylamine]
AI (ppm) ([8]; Ranitidine, MDD 320 mg): 0.3 ppm
AI /day [9]: 96 ng
AI Limit [6]: 96 ng/day

Compound: O=S(=O)([O-])[O-].[Ca+2] [Calcium Sulfate]
Nitrite (% decrease) [1]: 22.2%

NO Adsorbed Amount [5]: 0.16 mg/g
NO2 Adsorbed Amount [2]: 4.95 mg/g
Compound: Vitamin E
Nitrite (% decrease) [4]: 31.6%
Nitrite (% decrease) [1]: 89.8%

Compound: CCCOC(=O)c1cc(O)c(O)c(O)c1 [Propyl Gallate]
Nitrite (% decrease) [1]: 3.2%

Compound: O=C1O[C@H]([C@@H](O)CO)C([O-])=C1O.[Na+] [Sodium Ascorbate]
NPO (% Decrease) [3]: 9%

NO2 Adsorbed Amount [2]: 2.96 mg/g
Compound: OC[C@H]1O[C@@H]2O[C@H]3[C@H](O)[C@@H](O)[C@@H](O[C@H]4[C@H](O)[C@@H](O)[C@@H](O[C@H]5[C@H](O)[C@@H](O)[C@@H](O[C@H]6[C@H](O)[C@@H](O)[C@@H](O[C@H]7[C@H](O)[C@@H](O)[C@@H](O[C@H]8[C@H](O)[C@@H](O)[C@@H](O[C@H]1[C@H](O)[C@H]2O)O[C@@H]8CO)O[C@@H]7CO)O[C@@H]6CO)O[C@@H]5CO)O[C@@H]4CO)O[C@@H]3CO [Beta Cyclodextrin Powder, Beta Cyclodextrin]
Nitrite (% decrease) [1]: 25.6%

Compound: CC(C)=CCC/C(C)=C/C=C/C(C)=C/C=C/C(C)=C/C=C/C=C(C)/C=C/C=C(C)/C=C/C=C(\C)CCC=C(C)C [Lycopene]
Nitrite (% decrease) [1]: 23.7%

Compound: [Cl-].[Na+] [Sodium Chloride]
Nitrite (% decrease) [4]: 99.9%
NO Adsorbed Amount [5]: 0.34 mg/g
Nitrite (% decrease) [1]: 86.8%
NO2 Adsorbed Amount [2]: 2.00 mg/g

Compound: CC1=C(/C=C/C(C)=C/C=C/C(C)=C/C=C/C=C(C)/C=C/C=C(C)/C=C/C2=C(C)C[C@@H](O)CC2(C)C)C(C)(C)C[C@H](O)C1 [Zeaxanthin]
Nitrite (% decrease) [1]: 26.6%

Compound: Vitamin A
Nitrite (% decrease) [1]: 11.3%

Compound: N[C@@H](CS)C(=O)O [L-cysteine]
NPO (% Decrease) [3]: 2%
